Data published in patent US9422226B2 (Biogen MA Inc., priority 2011, dated 2016).
Where a name gives a salt, the structure may show the parent alone. Read-outs that look alike come from different tables or passages of the source. Blank lines part the entries; values can stand above or below the compound they belong to.

Tests used:
[1] = high doses; cited from earlier work
[2] = Methanolysis of dimethyl sulfate, 1H NMR kinetics; type: physicochemical; conditions: 65° C., 1.5 mole % DMS in dry methanol
Description: Solutions of 1.5 mole % DMS and methanol were heated in a sealed tube to 35° C. and the time-dependent NMR spectra were collected for these mixtures. […] Use of NMR data helped confirm the reaction mechanism proposed in Scheme 2.
The reaction proceeded more slowly at 35° C. but clearly confirms the formation of dimethyl ether (DME). The gradual downfield shift of the exchangeable OH resonance (4.8 ppm) supports the generation of a strong acid i.e., MMS (Scheme 5). Another set of duplicate experiments were performed under the reaction conditions at 65° C. (again spiking 1.5 mole % DMS into dry methanol with <0.01% water and no sulfuric acid) and monitoring the reaction for 60 minutes. This reaction was considered to be essentially irreversible under nominal plant process conditions since the reaction vessels are not pressurized and the resultant dimethyl ether would bubble out of solution.

[3] = Hydrolysis of dimethyl sulfate, water spiking, 1H NMR kinetics; type: physicochemical; conditions: 65° C., water 10.5, 14.0, 17.7 mole % in DMS-methanol
Description: The hydrolysis rate of dimethyl sulfate was determined by spiking known amounts of water into a mixture of DMS and methanol. Water was spiked into DMS-methanol solutions at three different levels—10.5, 14.0, and 17.7 mole % equivalents. The reactions were monitored for 60 minutes at 65° C. and the DMS peak integrals obtained.
The rate constant for the hydrolysis of DMS (k−2) was derived by fitting all the data to a DynoChem model that used the time-dependant peak integral data.

[4] = test system: serum proteins; conditions: cited from earlier work
[5] = test system: Ehrlich solid tumor cells; conditions: in mice; cited from earlier work
[6] = Particle size of dimethyl fumarate by laser diffraction during and after drying; type: physicochemical
Description: The particle sizes reported here are based on a measured distribution. In one embodiment, the particle sizes are measured using a Laser Diffraction technique that correlates light scattering to particle volume on which “effective length or effective diameter” is calculated. The distribution is based on a measurement of thousands of particles. Particles samples can be in dry form or in slurry. In one embodiment, the instrument used to determine particle size/distribution is a Beckman Coulter LS230 or a Malvern Mastersizer.
The effect of temperature, pressure, and drying time on particle size was also investigated. […] Development studies examined the extent of sublimation under the drying conditions employed in the manufacturing plant. The first 3 entries in Table 5 are lab samples collected after 7, 24, and 48 hours drying time. The result from the three lab samples confirms that drying has no effects on the particle size. The particle size of lab samples were also compared to two representative plant samples which were dried for 48 hours and 72 hours. There is no change in particle size during drying.

[7] = Mean particle size before and after jet milling; type: physicochemical
Description: These particles were milled to produce particles of a suitable size for consistent handling and uniformity for drug product processing. The target specification for particle size is ≧97% of the particles <250 μm. The dimethyl fumarate drug substance was milled consistently to meet this specification using a jet mill. […] It is evident that the milling operation is capable of producing a drug substance of suitable quality.

[8] = Lab crystallization experiments with different cooling rates, mean particle size; type: physicochemical; conditions: isolated from the reaction mixture prior to milling
Description: In the current process the mixture was cooled from reaction temperature 65° C. to the end temperature 20-25° C. in about 8 hours, stirred for 1-2 hours, and filtered to isolate the product.
Table 2 highlights results from laboratory crystallization experiments with cooling rates chosen within manufacturing equipment capabilities.

[9] = Formation of monomethyl sulfate from sulfuric acid and methanol, 1H NMR kinetics; type: physicochemical; conditions: 65° C., dry methanol and concentrated sulfuric acid; ±7% RSD
Description: All ^1H NMR spectra were obtained in and referenced against DMSO-d6 at 2.5 ppm using a Varian 500 MHz NMR. Concentrated sulfuric acid, fumaric acid, and dimethyl fumarate were obtained from the Sigma-Aldrich Chemical Company. Authentic standards of MMS (Na salt) and DMS were also obtained from Sigma-Aldrich. For spiking identification purposes, an authentic sample of MMS was prepared by passing a methanolic solution of the commercially available sodium salt through Amberlite FPA 22 resin (H form, 10 molar equivalents), and concentrating to an oil on a flash evaporator.
All small scale reactions performed in the study were magnetically stirred and carried out using an insulated oil bath maintained at 65 deg±1° C. […]
Sampling of reactions involved removal of a minimum of 150-400 μL of reaction solution, addition to DMSO-d6 (lock solvent) as required to make up a 650 μL solution in each NMR tube. Samples were chilled in an ice/water bath, and analyzed within 5-10 minutes of their preparation. […]
Dry methanol (<0.01% water) was mixed with concentrated dry sulfuric acid and heated to 65° C. […] Equilibrium was reached within 1 hour, resulting in an essentially quantitative conversion of sulfuric acid to monomethyl sulfate. […] The second-order forward rate constant (k1) for the formation of MMS at 65° C. was determined to be 6.4×10^−5 L/mol-sec with a confidence interval of ±7% RSD.

[10] = cited from earlier work; for rate constant for the hydrolysis of MMS, extrapolated: at 25° C.
[11] = Hydrolysis of monomethyl sulfate, water spiking, 1H NMR; type: physicochemical
Description: The rate constant of this reaction was measured by spiking water into solutions containing MMS (1.5 mole %) and monitoring the heated, sealed, vessel by ^1H NMR for 45 hours. Water was spiked into the matrix at two different levels—6 mole % and 12 mole %. […] In order to develop the larger model, the MMS equilibrium constant K (k1/k−1) was assigned a value of 999:1 in favor of the forward reaction, thus conservatively defining k−1 as 6.4×10^−8 L/mol-sec.

Compound: N#C/C=C/C#N [fumaronitrile]
side effects and toxicity [1]: high toxicity

Compound: COS(=O)(=O)OC [DMS, dimethyl sulfate]
rate constant for the methanolysis of DMS (k3) [2]: 4.1e-05 M⁻¹ s⁻¹
rate constant for the hydrolysis of DMS (k−2) [3]: 0.00023 M⁻¹ s⁻¹

Compound: COC(=O)/C=C/C(=O)O [methyl hydrogen fumarate]
bound by serum proteins [4]: 30%

Compound: NC(=O)/C=C/C(N)=O [fumaramide]
side effects and toxicity [1]: high toxicity

Compound: O=C(O)/C=C/C(=O)O [fumaric acid]
growth of Ehrlich solid tumor cells [5]: impede the growth

Particle Size by Laser Diffraction, D10 ([6]; drying time 7 h (lab)): 328 μm
Particle Size by Laser Diffraction, D50 ([6]; drying time 7 h (lab)): 566 μm
Particle Size by Laser Diffraction, D90 ([6]; drying time 7 h (lab)): 850 μm
Particle Size by Laser Diffraction, D97 ([6]; drying time 7 h (lab)): 987 μm
Particle Size by Laser Diffraction, Mean ([6]; drying time 7 h (lab)): 524 μm
Particle Size by Laser Diffraction, D10 ([6]; drying time 24 h (lab)): 323 μm
Particle Size by Laser Diffraction, D50 ([6]; drying time 24 h (lab)): 562 μm
Particle Size by Laser Diffraction, D90 ([6]; drying time 24 h (lab)): 843 μm
Particle Size by Laser Diffraction, D97 ([6]; drying time 24 h (lab)): 979 μm
Particle Size by Laser Diffraction, Mean ([6]; drying time 24 h (lab)): 521 μm
Particle Size by Laser Diffraction, D10 ([6]; drying time 48 h (lab)): 340 μm
Particle Size by Laser Diffraction, D50 ([6]; drying time 48 h (lab)): 567 μm
Particle Size by Laser Diffraction, D90 ([6]; drying time 48 h (lab)): 845 μm
Particle Size by Laser Diffraction, D97 ([6]; drying time 48 h (lab)): 980 μm
Particle Size by Laser Diffraction, Mean ([6]; drying time 48 h (lab)): 535 μm
Particle Size by Laser Diffraction, D10 ([6]; drying time 48 h (plant)): 332 μm
Particle Size by Laser Diffraction, D50 ([6]; drying time 48 h (plant)): 561 μm
Particle Size by Laser Diffraction, D90 ([6]; drying time 48 h (plant)): 828 μm
Particle Size by Laser Diffraction, D97 ([6]; drying time 48 h (plant)): 956 μm
Particle Size by Laser Diffraction, Mean ([6]; drying time 48 h (plant)): 536 μm
Particle Size by Laser Diffraction, D10 ([6]; drying time 72 h (plant)): 327 μm
Particle Size by Laser Diffraction, D50 ([6]; drying time 72 h (plant)): 562 μm
Particle Size by Laser Diffraction, D90 ([6]; drying time 72 h (plant)): 834 μm
Particle Size by Laser Diffraction, D97 ([6]; drying time 72 h (plant)): 963 μm
Particle Size by Laser Diffraction, Mean ([6]; drying time 72 h (plant)): 524 μm
Mean Particle Size ([7]; after jet milling): 20-40 μm
Mean Particle Size ([7]; isolated from the dryer, before milling): 550-650 μm
Mean Particle Size ([8]; cooling rate 5° C./h): 475 μm
Mean Particle Size ([8]; cooling rate 8° C./h): 448 μm
Mean Particle Size ([8]; cooling rate 15° C./h): 475 μm
Compound: COC(=O)/C=C/C(=O)OC [dimethyl fumarate]

Compound: COS(=O)(=O)O [MMS, monomethyl sulfate]
second-order forward rate constant (k1) for the formation of MMS [9]: 6.4e-05 M⁻¹ s⁻¹
equilibrium constant for the hydrolysis of monomethyl sulfate ([10]; T=100° C. to 150° C., sulfuric acid 1-4 M): 0.027 M⁻¹
rate constant for the hydrolysis of MMS, extrapolated ([10]; 1M HCl, T=40° C. to 100° C.): 1.7e-08 M⁻¹ s⁻¹
rate constant for the hydrolysis of MMS, extrapolated ([10]; pH=3 to 10, T=100° C. to 190° C.): 2.2e-11 M⁻¹ s⁻¹
MMS level after water spiking ([11]; MMS 1.5 mole %, water 6 and 12 mole %, heated sealed vessel, 45 hours): virtually unchanged
hydrolysis rate constant k−1 ([11]; from K (k1/k−1) assigned 999:1, conservative): 6.4e-08 M⁻¹ s⁻¹

Compound: O=C(O)/C(O)=C(\O)C(=O)O [dihydroxy fumaric acid]
side effects and toxicity [1]: high toxicity
